Measurements as given in doi:10.1101/2025.11.20.689647v1, “Alcohols inhibit glucose transporters noncompetitively at a constant membrane concentration according to lipid theory” (biorxiv, 2025).

Columns and labels:
Hxt2 [1] = system: T1, Hxt2; experiment: initial 2DG uptake ([…] s, zero-trans), bioluminescent 2DG6P assay in HXT2m cells; format: cell-based, Saccharomyces cerevisiae; details: 1 mM 2DG, pH 7.4, 25 °C, 30 min preincubation, authors: nonspecific action via membrane lipid, not specific binding
T1 construct: full-length HXT2 expressed from ADH1 promoter on multicopy plasmid Hxt2mnx-pVT (pVT102-U) in S. cerevisiae EBY.S7 (all 18 hexose transporter genes deleted; HXT2m strain)

Hxt2 [2] = system: T1, Hxt2; experiment: as above; format: cell-based, Saccharomyces cerevisiae; details: no alcohol, 0–4 mM 2DG, pH 7.4, 25 °C, zero-trans influx

CCCCCCO [C6, 1-hexanol] gave an IC50 (Hxt2 [1]; noncompetitive) of 15.2 mM.

CCCCCCCCO [C8, 1-octanol] showed an IC50 (Hxt2 [1]) of 3.6 mM.

OC[C@H]1OC(O)C[C@@H](O)[C@@H]1O (stereo partly drawn) [2DG, 2-deoxyglucose] showed a Km (Hxt2 [2]) of 800 to 900 µM.
